Laboratory results as given in patent US11957735B2, “Releasable GLP-1 conjugates” (QuiaPEG Pharmaceuticals AB, priority 2018, dated 2024).

Assay: pH-triggered hydrolysis (T1/2) in TRIS buffer at 37° C., HPLC with AZT internal reference
Type: physicochemical
Conditions: pH 8, hydrolysis of aminouridine carbamate, process of Example 1
Method: In the following experiment, the T1/2 at pH 8 is calculated to be approx. 11 h, which translates to 44 h at pH 7.4 (factor 4×). ˜1 mg conjugate was dissolved in a volume of 20% MeCN in water. An appropriate amount of azidothymidine (AZT) was added as an internal reference and the hydrolysis was started by addition of a volume of 0.3 M TRIS buffer solution at pH 8.0. The reaction mixture was then kept at 37° C. 30 μL aliquots were taken at each time point and acidified by addition of 20 μL 1 M AcOH before injection to HPLC.

O=C(NC1C(O)[C@@H](CO)O[C@H]1n1ccc(=O)[nH]c1=O)OCC(c1ccccc1)c1ccccc1 (stereo partly shown) [compound 1]
half-life: 12 days
